Earlier results as cited in US20180140572A1, “COMPOSITIONS COMPRISING A CANCER STEMNESS INHIBITOR AND AN IMMUNOTHERAPEUTIC AGENT FOR USE IN TREATING CANCER” (Boston Biomedical, Inc., priority 2015, published 2018).

Test system: microsatellite stable (MSS) metastatic colorectal cancer (mCRC)
Details: patients with MSS mCRC, cited from earlier work

pembrolizumab: immunotherapeutic agent that binds to PD-1
immune-related progression-free survival at 20 weeks (20 weeks): 11% | disease control rate: 11% | effectiveness: not effective | immune-related objective response rate: 0% | response rate: 0%
